ChEMBL document CHEMBL3588813, “Antifungal Amphiphilic Aminoglycosides” (Medchemcomm, 2014)
≈ marks a conversion by molar mass, not a printed value.

Assays:
Staphylococcus aureus [1] = test: Antimicrobial activity against Staphylococcus aureus ATCC 25923 assessed as inhibition of bacterial growth incubated at 35 degC for 12 to 18 hrs; type: functional
Escherichia coli = test: Antimicrobial activity against Escherichia coli ATCC 25922 assessed as inhibition of bacterial growth incubated at 35 degC for 12 to 18 hrs; type: functional
[2] = Induction of hemolysis in sheep erythrocytes incubated at 37 degC for 60 mins; type: cell-based, Ovis aries, Erythrocyte
Enterococcus faecalis = test: Antimicrobial activity against vancomycin-resistant Enterococcus faecalis ATCC 1299 assessed as inhibition of bacterial growth incubated at 35 degC for 12 to 18 hrs; type: functional
Staphylococcus aureus [3] = test: Antimicrobial activity against methicillin-resistant Staphylococcus aureus ATCC 33591 assessed as inhibition of bacterial growth incubated at 35 degC for 12 to 18 hrs; type: functional
Pseudomonas aeruginosa = test: Antimicrobial activity against Pseudomonas aeruginosa ATCC 27853 assessed as inhibition of bacterial growth incubated at 35 degC for 12 to 18 hrs; type: functional
Fusarium graminearum [4] = test: Antimicrobial activity against Fusarium graminearum B4-5A using RPMI medium by microbroth dilution assay; type: functional
Fusarium graminearum [5] = test: Antimicrobial activity against Fusarium graminearum B4-5A using potato dextrose broth as growth medium and diluent; type: functional
Botrytis cinerea = test: Antimicrobial activity against Botrytis cinerea using potato dextrose broth as growth medium and diluent; type: functional
Rhodotorula mucilaginosa = test: Antimicrobial activity against Rhodotorula piliminae using potato dextrose broth as growth medium and diluent; type: functional

Compound | MIC (Staphylococcus aureus [1]) [µg/mL] | MIC (Escherichia coli) [µg/mL] | IC90 at 1 h [2] [µg/mL] | MIC (Enterococcus faecalis) [µg/mL] | MIC (Staphylococcus aureus [3]) [µg/mL] | MIC (Pseudomonas aeruginosa) [µg/mL] | MIC (Fusarium graminearum [4]) [µg/mL] | MIC (Fusarium graminearum [5]) [µg/mL] | MIC (Botrytis cinerea) [µg/mL] | MIC (Rhodotorula mucilaginosa) [µg/mL]
CCCCCCc1cn(C[C@H]2O[C@@H](O[C@@H]3[C@@H](O)[C@H](N)C[C@H](N)[C@H]3O[C@H]3O[C@H](CN)[C@@H](O)[C@H](O)[C@H]3N)[C@H](O)[C@@H]2O[C@H]2O[C@@H](CN)[C@@H](O)[C@H](O)[C@H]2N)nn1 | 4 (≈ 5.33 µM) | 32 (≈ 42.7 µM) | – | – | – | – | – | – | – | –
CCCCCCCCCCCCCCCC(=O)NC[C@H]1O[C@@H](O[C@@H]2[C@@H](O)[C@H](N)C[C@H](N)[C@H]2O[C@H]2O[C@H](CN)[C@@H](O)[C@H](O)[C@H]2N)[C@H](O)[C@@H]1O[C@H]1O[C@@H](CN)[C@@H](O)[C@H](O)[C@H]1N | 1 (≈ 1.17 µM) | 4 (≈ 4.69 µM) | > 1000 | 4 (≈ 4.69 µM) | 2 (≈ 2.35 µM) | 4 (≈ 4.69 µM) | 125 (≈ 147 µM) | – | – | –
CCCCCCCCCCCCCCCCCC(=O)NC[C@H]1O[C@@H](O[C@@H]2[C@@H](O)[C@H](N)C[C@H](N)[C@H]2O[C@H]2O[C@H](CN)[C@@H](O)[C@H](O)[C@H]2N)[C@H](O)[C@@H]1O[C@H]1O[C@@H](CN)[C@@H](O)[C@H](O)[C@H]1N | 2 (≈ 2.27 µM) | 4 (≈ 4.54 µM) | > 1000 | 8 (≈ 9.09 µM) | 2 (≈ 2.27 µM) | 8 (≈ 9.09 µM) | 125 (≈ 142 µM) | – | – | –
NC[C@@H]1O[C@H](O[C@H]2[C@@H](O)[C@H](O[C@@H]3[C@@H](O)[C@H](N)C[C@H](N)[C@H]3O[C@H]3O[C@H](CN)[C@@H](O)[C@H](O)[C@H]3N)O[C@@H]2CNC(=O)c2cc(-c3ccccc3)nc3ccccc23)[C@H](N)[C@@H](O)[C@@H]1O | 4 (≈ 4.73 µM) | 8 (≈ 9.47 µM) | – | – | – | – | – | – | – | –
CCCCCCCCCCCC(=O)NC[C@H]1O[C@@H](O[C@@H]2[C@@H](O)[C@H](N)C[C@H](N)[C@H]2O[C@H]2O[C@H](CN)[C@@H](O)[C@H](O)[C@H]2N)[C@H](O)[C@@H]1O[C@H]1O[C@@H](CN)[C@@H](O)[C@H](O)[C@H]1N | 8 (≈ 10.1 µM) | 16 (≈ 20.1 µM) | – | 64 (≈ 80.4 µM) | 16 (≈ 20.1 µM) | 16 (≈ 20.1 µM) | – | – | – | –
NCC[C@H](O)C(=O)N[C@@H]1C[C@H](N)[C@@H](O[C@H]2O[C@H](CN)[C@@H](O)[C@H](O)[C@H]2O)[C@H](O)[C@H]1O[C@H]1O[C@H](CO)[C@@H](O)[C@H](N)[C@H]1O [AMIKACIN] | 1 (≈ 1.71 µM) | 1 (≈ 1.71 µM) | – | ≥ 250 | 8 (≈ 13.7 µM) | 0.5 (≈ 0.854 µM) | – | – | – | –
NC[C@H]1O[C@H](O[C@H]2[C@H](O)[C@@H](O[C@H]3O[C@H](CO)[C@@H](O)[C@H](N)[C@H]3O)[C@H](N)C[C@@H]2N)[C@H](N)[C@@H](O)[C@@H]1O [BEKANAMYCIN] | – | – | – | – | – | – | – | > 250 | – | –
NC[C@@H]1O[C@H](O[C@H]2[C@@H](O)[C@H](O[C@@H]3[C@@H](O)[C@H](N)C[C@H](N)[C@H]3O[C@H]3O[C@H](CN)[C@@H](O)[C@H](O)[C@H]3N)O[C@@H]2CO)[C@H](N)[C@@H](O)[C@@H]1O [FRAMYCETIN] | 1 (≈ 1.63 µM) | 4 (≈ 6.51 µM) | – | ≥ 250 | 125 (≈ 203 µM) | 64 (≈ 104 µM) | 62.5 (≈ 102 µM) | – | – | –
NC[C@@H]1O[C@@H](O[C@H]2[C@H](O)[C@@H](O[C@H]3O[C@H](CO)[C@@H](O)[C@H](N)[C@H]3O)[C@H](N)C[C@@H]2N)[C@@H](O)[C@H](O)[C@H]1O [KANAMYCIN A] | – | – | – | – | – | – | > 500 | – | – | –
CC1(C)CCC(Cc2ccc(Cl)cc2)C1(O)Cn1cncn1 (configuration not stated) [METCONAZOLE] | – | – | – | – | – | – | – | 3.9 (≈ 12.2 µM) | 7.8 (≈ 24.4 µM) | 15.6 (≈ 48.8 µM)
CN[C@H](CC(C)C)C(=O)N[C@H]1C(=O)N[C@@H](CC(N)=O)C(=O)N[C@H]2C(=O)N[C@H]3C(=O)N[C@H](C(=O)N[C@H](C(=O)O)c4cc(O)cc(O)c4-c4cc3ccc4O)[C@H](O)c3ccc(c(Cl)c3)Oc3cc2cc(c3O[C@@H]2O[C@H](CO)[C@@H](O)[C@H](O)[C@H]2O[C@H]2C[C@](C)(N)[C@H](O)[C@H](C)O2)Oc2ccc(cc2Cl)[C@H]1O [VANCOMYCIN] | – | 125 (≈ 86.3 µM) | – | 250 (≈ 173 µM) | – | ≥ 250 | – | – | – | –
